# Experimental data: patent US20080194546A1, “Pyrido-, Pyrazo- and Pyrimido-Pyrimidine Derivatives as mTOR Inhibitors” (KuDOS Pharmaceuticals Limited, priority 2005, published 2008)
# pIC50: −log10 of the molar value. Read-outs that look alike come from different tables or passages of the source.
# Assays:
# [1] = system: phosphorylation of Serine 473 in Akt in MDA-MB-468 cells; assay: In Vitro phospho-Ser473 Akt Assay (Acumen Explorer); format: cell-based; settings: Homo sapiens
# mTOR = target: T1, mTOR (Homo sapiens, UniProt P42345); assay: Biological Assay: mTOR enzyme activity, mTOR immunoprecipitated from HeLa cell cytoplasmic extract, recombinant PHAS-1 as substrate; format: biochemical; settings: Biological Assay, upper bounds; read-out: IC50 values against mTOR
# T1 construct: mTOR protein was isolated from HeLa cell cytoplasmic extract by immunoprecipitation; endogenous in cells; host or cells: HeLa cell cytoplasmic extract (immunoprecipitate)
# Description: For mTOR enzyme activity assays, mTOR protein was isolated from HeLa cell cytoplasmic extract by immunoprecipitation, and activity determined essentially as described previously using recombinant PHAS-1 as a substrate (ref. 21).
# [2] = MDA-MB-468, read-out: IC50 values against mTOR (phospho-Ser473 Akt assay)
# [3] = MDA-MB-468 cells, 2 hours, read-out: IC50, phospho-Ser473 Akt assay (cellular IC50, measured by pAkt)
SMILES,"pIC50 [1, 2]",pIC50 (mTOR),also measured
C[C@H]1COCCN1c1nc(N2CCOC[C@@H]2C)c2ccc(-c3ccnc(F)c3)nc2n1 [Example 11au],> 4.96,–,–
C[C@H]1COCCN1c1nc(N2CCOC[C@@H]2C)c2ccc(-c3cccc(C(=O)NCC(F)(F)F)c3)nc2n1 [Example 13f],> 4.96,–,–
C[C@H]1COCCN1c1nc(N2CCC(C(N)=O)CC2)nc2nc(-c3ccc(Cl)cc3)ccc12 [Example 28dj],> 4.96,–,–
C[C@H]1COCCN1c1nc(N2CCOC[C@@H]2C)c2ccc(-c3cccc(C(=O)N4CCN(C)CC4)c3)nc2n1 [Example 11bf],> 4.96,–,–
C[C@H]1COCCN1c1nc(N2CCOC[C@@H]2C)c2ccc(-c3ccc(CNc4cc[nH]n4)o3)nc2n1 [Example 17i],> 4.96,–,–
COc1ccc(CCNCc2cc(-c3ccc4c(N5CCOCC5C)nc(N5CCOC[C@@H]5C)nc4n3)ccc2OC)cc1 (stereo partly drawn) [Example 14bd],> 7.00,–,–
C[C@H]1CCCCN1c1nc(N2CCOC[C@@H]2C)c2ccc(-c3ccc(Cl)cc3)nc2n1 [Example 28de],> 4.96,–,–
COc1ccc(-c2ccc3c(N4CCOC[C@@H]4C)nc(-c4cccc([N+](=O)[O-])c4)nc3n2)cc1CO [Example 29i],> 4.96,–,–
COCc1cccc(-c2nc(N3CCOC[C@@H]3C)c3ccc(-c4ccc(OC)c(CO)c4)nc3n2)c1 [Example 29l],> 4.96,–,–
C[C@@H]1CCCCN1c1nc(N2CCOC[C@@H]2C)c2ccc(-c3ccc(Cl)cc3)nc2n1 [Example 28dg],> 4.96,–,–
C[C@@H]1CN(c2nc(N3CCOC[C@@H]3C)c3ccc(-c4ccccc4)nc3n2)C[C@H](C)O1 [Example 11j],> 6.52,–,–
CC(=O)N(C)Cc1ccc(-c2ccc3c(N4CCOC[C@@H]4C)nc(N4CCOC[C@@H]4C)nc3n2)cc1 [Example 15r],> 4.96,–,–
"C[C@H]1COCCN1c1nc(N2CCOC[C@@H]2C)c2ccc(-c3ccc4c(c3)C(=O)NCCN4)nc2n1 [Example 11df, 7-[2,4-bis-((S)-3-methyl-morpholin-4-yl)-pyrido[2,3-d]pyrimidin-7-yl]-1,2,3,4-tetrahydro-benzo[e][1,4]diazepin-5-one]",–,–,"pIC50 [1, 3]: 6.42"
"CC(C)Oc1ccc(-c2ccc3c(N4CCOC[C@@H]4C)nc(N4CCOC[C@@H]4C)nc3n2)cc1C(N)=O [Example 11cw, 5-[2,4-bis-((S)-3-methyl-morpholin-4-yl)-pyrido[2,3-d]pyrimidin-7-yl]-2-isopropoxy-benzamide]",> 4.96,–,–
CC(C)S(=O)(=O)Nc1cccc(-c2ccc3c(N4CCOC[C@@H]4C)nc(N4CCOC[C@@H]4C)nc3n2)c1 [Example 25b],–,–,"pIC50 [1, 3]: 6.30"
C[C@H]1COCCN1c1nc(N2CCCC(CO)C2)nc2nc(-c3cccc(C(N)=O)c3)ccc12 (stereo partly drawn) [Example 12d],> 4.96,–,–
COc1ccc(-c2ccc3c(N4CCOC[C@@H]4C)nc(N4CCOC[C@@H]4C)nc3n2)cc1CNC1CC1 [Example 14al],> 7.00,–,–
C[C@H]1COCCN1c1nc(N2CCOC[C@@H]2C)c2ccc(-c3ccc(F)c(CNC(=O)C4CCC4)c3)nc2n1 [Example 15x],> 4.96,–,–
COCCN(C)Cc1cc(-c2ccc3c(N4CCOC[C@@H]4C)nc(N4CCOC[C@@H]4C)nc3n2)ccc1F [Example 14aj],> 4.96,–,–
CCOc1nc(N2CCOC[C@@H]2C)c2ccc(-c3ccc(OC)c(CO)c3)nc2n1 [Example 28cv],> 4.96,–,–
CNC(=O)c1ccc(-c2ccc3c(N4CCOC[C@@H]4C)nc(N4CCOC[C@@H]4C)nc3n2)cc1 [Example 11ak],> 7.00,–,–
COc1ccc(-c2ccc3c(N4CCOC[C@@H]4C)nc(N4CCOC[C@@H]4C)nc3n2)cc1CO [Example 11a],–,–,"pIC50 ([1]; MDA-MB-468 cells, compounds of Formula I(B), read-out: IC50 values against mTOR (phospho-Ser473 Akt assay)): > 7.00"

SMILES,"pIC50 [1, 2]",pIC50 (mTOR),also measured
C[C@H]1COCCN1c1nc(N2CCOC[C@@H]2C)c2ccc(-c3ccc4nc[nH]c(=O)c4c3)nc2n1 [Example 11cl],> 4.96,–,–
COc1ccc(-c2ccc3c(N4CCOC[C@@H]4C)nc(-c4cccc(C(F)(F)F)c4)nc3n2)cc1CO [Example 29m],> 4.96,–,–
CC(C)CC(=O)NCc1cccc(-c2ccc3c(N4CCOC[C@@H]4C)nc(N4CCOC[C@@H]4C)nc3n2)c1 [Example 15f],> 4.96,–,–
C[C@H]1COCCN1c1nc(-c2cnn(C)c2)nc2nc(-c3cccc(CO)c3)ccc12 [Example 29v],> 4.96,–,–
CC(C)CC(=O)NCc1cc(-c2ccc3c(N4CCOC[C@@H]4C)nc(N4CCOC[C@@H]4C)nc3n2)ccc1F [Example 15y],> 4.96,–,–
COc1ccc(-c2ccc3c(N4CCOCC4C)nc(N4CCOC[C@@H]4C)nc3n2)cc1CNC1CCOCC1 (stereo partly drawn) [Example 14aq],> 7.00,–,–
C[C@H]1COCCN1c1nc(N2CCC(c3ccncc3)CC2)nc2nc(-c3ccc(N)nc3)ccc12 [Example 12e],> 4.96,–,–
COc1ccc(-c2ccc3c(N4CCOC[C@@H]4C)nc(Nc4cccnc4)nc3n2)cc1CO [Example 28o],> 4.96,–,–
C[C@H]1COCCN1c1nc(N2CCC(CO)CC2)nc2nc(-c3cccc(C(N)=O)c3)ccc12 [Example 12h],> 4.96,–,–
COC(=O)c1cccc(-c2nc(N3CCOC[C@@H]3C)c3ccc(-c4ccc(OC)c(CO)c4)nc3n2)c1 [Example 29h],> 4.96,–,–
Cc1nn(C)c(C)c1-c1nc(N2CCOC[C@@H]2C)c2ccc(-c3cccc(CO)c3)nc2n1 [Example 29w],> 4.96,–,–
C[C@H]1COCCN1c1nc(-c2cccnc2F)nc2nc(-c3cccc(CO)c3)ccc12 [Example 29u],> 4.96,–,–
COC(=O)[C@@H]1C[C@@H](O)CN1c1nc(N2CCOC[C@@H]2C)c2ccc(-c3ccc(OC)c(CO)c3)nc2n1 [Example 28aa],> 4.96,–,–
COc1ccc(-c2ccc3c(N4CCOC[C@@H]4C)nc(N4CCCC(c5ccccc5)C4)nc3n2)cc1CO (stereo partly drawn) [Example 28j],> 4.96,–,–
C[C@@H]1CN(c2nc(N3CCOCC3)c3ccc(NC4CC4)nc3n2)C[C@H](C)O1 [Example 2ah],–,> 6.00,–
C[C@@H]1CN(c2nc(N3CCOCC3)c3ccc(-c4ccc(C(=O)O)s4)nc3n2)C[C@H](C)O1 [Example 1ar],–,> 6.00,–
C=CCNc1ccc2c(N3CCOCC3)nc(N3C[C@@H](C)O[C@@H](C)C3)nc2n1 [Example 2am],–,> 5.00,–
C[C@@H]1CN(c2nc(N3CCOCC3)c3ccc(-c4cccc(N5CCOCC5)c4)nc3n2)C[C@H](C)O1 [Example 1as],–,> 6.00,–
COc1ccc(-c2ccc3c(N4CCOCC4)nc(N4C[C@@H](C)O[C@@H](C)C4)nc3n2)cc1CNCc1cccs1 [Example 8j],–,> 7.00,–
C[C@@H]1CN(c2nc(N3CCOCC3)c3ccc(-c4ccc([N+](=O)[O-])cc4)nc3n2)C[C@H](C)O1 [Example 1z],–,> 6.00,–
C[C@@H]1CN(c2nc(N3CCOCC3)c3ccc(NC(=O)c4nc[nH]c4N)nc3n2)C[C@H](C)O1 [Example 5g],–,> 5.00,–
COC(=O)c1ccc(Nc2ccc3c(N4CCOCC4)nc(N4C[C@@H](C)O[C@@H](C)C4)nc3n2)o1 [Example 2an],–,> 5.00,–

SMILES,"pIC50 [1, 2]",pIC50 (mTOR),also measured
C[C@@H]1CN(c2nc(N3CCOCC3)c3ccc(NC(=O)c4cnc5ccccc5n4)nc3n2)C[C@H](C)O1 [Example 5e],–,> 5.00,–
C[C@@H]1CN(c2nc(N3CCOCC3)c3ccc(-c4ccncc4)nc3n2)C[C@H](C)O1 [Example 1ac],–,> 6.00,–
C/C=C/C(=O)Nc1ccc2c(N3CCOCC3)nc(N3C[C@@H](C)O[C@@H](C)C3)nc2n1 [Example 5c],–,> 6.00,–
C[C@@H]1CN(c2nc(N3CCOCC3)c3ccc(Nc4ccncn4)nc3n2)C[C@H](C)O1 [Example 2bb],–,> 6.00,–
C[C@@H]1CN(c2nc(N3CCOCC3)c3ccc(Nc4ccnc(-c5cccnc5)n4)nc3n2)C[C@H](C)O1 [Example 2aw],–,> 6.00,–
C[C@H]1CCCCN1c1nc(N2CCOCC2)c2ccc(N)nc2n1 [Example 3b],–,> 6.00,–
Cc1cscc1-c1ccc2c(N3CCOCC3)nc(N3C[C@@H](C)O[C@@H](C)C3)nc2n1 [Example 1v],–,> 6.00,–
C[C@@H]1CN(c2nc(N3CCOCC3)c3ccc(-c4cccc(C(N)=O)c4)nc3n2)C[C@H](C)O1 [Example 1ai],–,> 6.00,–
Cc1cccnc1Nc1ccc2c(N3CCOCC3)nc(N3C[C@@H](C)O[C@@H](C)C3)nc2n1 [Example 2bg],–,> 5.00,–
C[C@@H]1CN(c2nc(N3CCOCC3)c3ccc(-c4ccc(O)cc4)nc3n2)C[C@H](C)O1 [Example 1l],–,> 7.00,–
COc1ccc(-c2ccc3c(N4C[C@@H](C)O[C@@H](C)C4)nc(N4CCOC[C@@H]4C)nc3n2)cc1CO [Example 1p],–,> 7.00,–
CC(=O)Nc1cccc(-c2ccc3c(N4CCOCC4)nc(N4C[C@@H](C)O[C@@H](C)C4)nc3n2)c1 [Example 1ab],–,> 6.00,–
COc1ccc(-c2ccc3c(N4CCOCC4)nc(N4C[C@@H](C)O[C@@H](C)C4)nc3n2)cc1 [Example 1e],–,> 7.00,–
C[C@@H]1CN(c2nc(N3CCOCC3)c3ccc(Nc4cccc(C(=O)c5ccccc5)c4)nc3n2)C[C@H](C)O1 [Example 2m],–,> 5.00,–
CC1CCC(Nc2ccc3c(N4CCOCC4)nc(N4C[C@@H](C)O[C@@H](C)C4)nc3n2)CC1 (stereo partly drawn) [Example 2al],–,> 5.00,–
COc1ccc(-c2ccc3c(N4CCOCC4)nc(N4C[C@@H](C)O[C@@H](C)C4)nc3n2)cc1OC [Example 1ah],–,> 6.00,–
C[C@@H]1CN(c2nc(N3CCOCC3)c3ccc(Nc4ccc(-n5cccc5)cc4)nc3n2)C[C@H](C)O1 [Example 2q],–,> 6.00,–
CCNC(=O)Nc1ccc2c(N3CCOCC3)nc(N3C[C@@H](C)O[C@@H](C)C3)nc2n1 [Example 4a],–,> 5.00,–
C[C@@H]1CN(c2nc(N3CCOCC3)c3ccc(Nc4ccccc4)nc3n2)C[C@H](C)O1 [Example 2a],–,> 6.00,–
Cc1cc(Nc2ccc3c(N4CCOCC4)nc(N4C[C@@H](C)O[C@@H](C)C4)nc3n2)no1 [Example 2x],–,> 5.00,–
C[C@@H]1CN(c2nc(N3CCOCC3)c3ccc(-c4ccc(C#N)cc4)nc3n2)C[C@H](C)O1 [Example 1n],–,> 7.00,–
Cc1ccc(-c2ccc3c(N4CCOCC4)nc(N4C[C@@H](C)O[C@@H](C)C4)nc3n2)s1 [Example 1t],–,> 6.00,–
